This is an account of results in patent US8871753B2, “Macrocyclic compounds and their use as kinase inhibitors” (Incyte Corporation, priority 2008, dated 2014).

What all share (assay type): biochemical
The target of assay [1] is T1, human JAK2 (a.a. 828-1132) (Homo sapiens, UniProt O60674).
T1 construct: JAK2 (a.a. 828-1132); His tag (N); made in house; host or cells: insect cells (baculovirus)
The assay can be described thus: In vitro JAK kinase assay (HTRF, phosphorylation of a biotinylated peptide), JAK2. A digest of the protocol: (§1)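 Kinase activity was measured as phosphorylation of a biotinylated peptide, with ATP at 90 μM for JAK1, 30 μM for JAK2 and 3 μM for JAK3. Reactions ran 1 hr at room temperature, were stopped with EDTA plus SA-APC and Eu-Py20, and were read by HTRF after 40 minutes of antibody binding.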

Assay [2] deals with T2, Recombinant Human Anaplastic Lymphoma Kinase (Homo sapiens, UniProt Q9UM73).
T2 construct: purchased Invitrogen, Carlsbad, Calif
T2 sequence (Q9UM73 19-1620): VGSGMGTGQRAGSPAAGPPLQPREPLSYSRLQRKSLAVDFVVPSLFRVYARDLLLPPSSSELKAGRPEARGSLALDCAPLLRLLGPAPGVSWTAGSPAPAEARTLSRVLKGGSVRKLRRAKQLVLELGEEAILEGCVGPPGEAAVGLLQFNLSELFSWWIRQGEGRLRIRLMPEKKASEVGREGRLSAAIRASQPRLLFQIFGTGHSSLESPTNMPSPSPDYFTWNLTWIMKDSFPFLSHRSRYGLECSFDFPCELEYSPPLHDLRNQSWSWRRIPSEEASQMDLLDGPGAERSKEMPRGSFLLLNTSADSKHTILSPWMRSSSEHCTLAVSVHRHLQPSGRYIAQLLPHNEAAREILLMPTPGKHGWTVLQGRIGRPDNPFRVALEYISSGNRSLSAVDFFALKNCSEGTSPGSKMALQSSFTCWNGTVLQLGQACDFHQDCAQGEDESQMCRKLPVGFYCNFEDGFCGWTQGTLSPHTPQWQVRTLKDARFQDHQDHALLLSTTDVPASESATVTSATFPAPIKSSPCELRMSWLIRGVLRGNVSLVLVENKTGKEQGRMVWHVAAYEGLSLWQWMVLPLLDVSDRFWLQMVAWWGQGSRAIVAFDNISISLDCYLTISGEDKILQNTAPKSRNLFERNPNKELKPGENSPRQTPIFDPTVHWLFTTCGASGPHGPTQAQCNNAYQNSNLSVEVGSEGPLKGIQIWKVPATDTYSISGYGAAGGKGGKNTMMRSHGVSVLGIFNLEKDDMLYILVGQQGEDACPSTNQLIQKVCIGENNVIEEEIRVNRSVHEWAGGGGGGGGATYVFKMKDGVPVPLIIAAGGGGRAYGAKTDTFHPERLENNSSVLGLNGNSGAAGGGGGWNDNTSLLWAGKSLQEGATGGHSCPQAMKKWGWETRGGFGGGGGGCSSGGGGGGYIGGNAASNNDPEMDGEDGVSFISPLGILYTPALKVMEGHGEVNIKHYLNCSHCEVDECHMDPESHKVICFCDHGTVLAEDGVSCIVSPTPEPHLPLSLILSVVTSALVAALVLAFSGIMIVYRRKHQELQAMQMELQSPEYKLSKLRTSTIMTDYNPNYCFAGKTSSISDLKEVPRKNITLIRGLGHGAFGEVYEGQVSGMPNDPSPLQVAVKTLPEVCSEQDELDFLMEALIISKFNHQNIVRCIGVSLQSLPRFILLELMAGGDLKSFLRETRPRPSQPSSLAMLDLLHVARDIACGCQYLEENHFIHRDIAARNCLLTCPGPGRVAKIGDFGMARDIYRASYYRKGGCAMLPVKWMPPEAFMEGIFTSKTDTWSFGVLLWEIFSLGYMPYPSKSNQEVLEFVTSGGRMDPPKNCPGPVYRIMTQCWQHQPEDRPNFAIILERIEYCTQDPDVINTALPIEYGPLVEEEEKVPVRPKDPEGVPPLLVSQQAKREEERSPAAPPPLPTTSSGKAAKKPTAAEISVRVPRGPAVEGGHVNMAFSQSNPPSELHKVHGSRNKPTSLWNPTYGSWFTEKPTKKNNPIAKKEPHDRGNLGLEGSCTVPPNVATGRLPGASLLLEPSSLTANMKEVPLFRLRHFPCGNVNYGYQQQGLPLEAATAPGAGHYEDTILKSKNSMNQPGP
The assay can be described thus: ALK HTRF kinase assay. A digest of the protocol:
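Recombinant human ALK phosphorylated a biotinylated synthetic peptide. Phosphotyrosine was detected by TR-FRET between a Eu-labelled anti-phosphotyrosine antibody and streptavidin-allophycocyanin. IC50 values came from fitting signal against inhibitor concentration to a four-parameter logistic equation with variable Hill slope.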

The target in assay [3] is T3, human JAK3 (a.a. 781-1124) (Homo sapiens, UniProt P52333).
T3 construct: JAK3 (a.a. 781-1124); His tag (N); made in house; host or cells: insect cells (baculovirus)
T3 sequence (P52333 781-1124): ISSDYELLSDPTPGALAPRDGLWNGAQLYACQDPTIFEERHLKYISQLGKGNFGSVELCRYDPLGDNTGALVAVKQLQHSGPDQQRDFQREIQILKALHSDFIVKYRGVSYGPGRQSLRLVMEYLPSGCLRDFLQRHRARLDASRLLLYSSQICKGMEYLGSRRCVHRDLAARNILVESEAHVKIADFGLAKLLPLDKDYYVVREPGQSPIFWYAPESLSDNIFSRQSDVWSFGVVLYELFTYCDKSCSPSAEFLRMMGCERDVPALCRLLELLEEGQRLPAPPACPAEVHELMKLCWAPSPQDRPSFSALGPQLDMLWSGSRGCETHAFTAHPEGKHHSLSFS
Kind of assay: In vitro JAK kinase assay (HTRF, phosphorylation of a biotinylated peptide), JAK3. The method, boiled down: as §1

Assay [4] addresses TYK2 (Homo sapiens, UniProt P29597). Kind of assay: TYK2 kinase inhibition (Table A1).
The target of assay [5] is T4, human JAK1 (a.a. 837-1142) (Homo sapiens, UniProt P23458).
T4 construct: human JAK1 (a.a. 837-1142); His tag (N); made in house; host or cells: insect cells (baculovirus)
T4 sequence (P23458 849-1154): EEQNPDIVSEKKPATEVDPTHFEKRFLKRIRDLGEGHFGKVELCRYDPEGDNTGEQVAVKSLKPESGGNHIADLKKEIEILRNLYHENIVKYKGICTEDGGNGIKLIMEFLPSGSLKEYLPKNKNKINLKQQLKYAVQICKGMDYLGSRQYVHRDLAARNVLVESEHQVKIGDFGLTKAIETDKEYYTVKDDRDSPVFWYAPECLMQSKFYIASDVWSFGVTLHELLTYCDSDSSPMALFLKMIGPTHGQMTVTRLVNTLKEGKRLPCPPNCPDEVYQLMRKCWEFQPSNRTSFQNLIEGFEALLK
The assay can be described thus: In vitro JAK kinase assay (HTRF, phosphorylation of a biotinylated peptide), JAK1. The following applies: read-out: JAK1 IC50. A digest of the protocol:
as §1

Setting [6] is: compound at a concentration of 500 nM or 1 mM (not specified), cells shown as percentage.
Setting [7] is: method AA1 (30 μM ATP) or AA2 (1000 μM ATP), not stated per value.
Where [8] appears, read: compound at 500 nM or 1 mM, 90 μM ATP.
[9] abbreviates: method AA1 (3 μM ATP) or AA2 (1000 μM ATP), not stated per value.
[10] abbreviates: method AA1 (90 μM ATP) or AA2 (1000 μM ATP), not stated per value.
Setting [11] is: Table B1, cells without percent sign.

Counter-ions that a name gives are not always drawn. Like-named read-outs stand apart in the source and are kept apart here. A value given as a limit tells only on which side of the number the result lay.

Sequence of TYK2 (P29597 whole entry): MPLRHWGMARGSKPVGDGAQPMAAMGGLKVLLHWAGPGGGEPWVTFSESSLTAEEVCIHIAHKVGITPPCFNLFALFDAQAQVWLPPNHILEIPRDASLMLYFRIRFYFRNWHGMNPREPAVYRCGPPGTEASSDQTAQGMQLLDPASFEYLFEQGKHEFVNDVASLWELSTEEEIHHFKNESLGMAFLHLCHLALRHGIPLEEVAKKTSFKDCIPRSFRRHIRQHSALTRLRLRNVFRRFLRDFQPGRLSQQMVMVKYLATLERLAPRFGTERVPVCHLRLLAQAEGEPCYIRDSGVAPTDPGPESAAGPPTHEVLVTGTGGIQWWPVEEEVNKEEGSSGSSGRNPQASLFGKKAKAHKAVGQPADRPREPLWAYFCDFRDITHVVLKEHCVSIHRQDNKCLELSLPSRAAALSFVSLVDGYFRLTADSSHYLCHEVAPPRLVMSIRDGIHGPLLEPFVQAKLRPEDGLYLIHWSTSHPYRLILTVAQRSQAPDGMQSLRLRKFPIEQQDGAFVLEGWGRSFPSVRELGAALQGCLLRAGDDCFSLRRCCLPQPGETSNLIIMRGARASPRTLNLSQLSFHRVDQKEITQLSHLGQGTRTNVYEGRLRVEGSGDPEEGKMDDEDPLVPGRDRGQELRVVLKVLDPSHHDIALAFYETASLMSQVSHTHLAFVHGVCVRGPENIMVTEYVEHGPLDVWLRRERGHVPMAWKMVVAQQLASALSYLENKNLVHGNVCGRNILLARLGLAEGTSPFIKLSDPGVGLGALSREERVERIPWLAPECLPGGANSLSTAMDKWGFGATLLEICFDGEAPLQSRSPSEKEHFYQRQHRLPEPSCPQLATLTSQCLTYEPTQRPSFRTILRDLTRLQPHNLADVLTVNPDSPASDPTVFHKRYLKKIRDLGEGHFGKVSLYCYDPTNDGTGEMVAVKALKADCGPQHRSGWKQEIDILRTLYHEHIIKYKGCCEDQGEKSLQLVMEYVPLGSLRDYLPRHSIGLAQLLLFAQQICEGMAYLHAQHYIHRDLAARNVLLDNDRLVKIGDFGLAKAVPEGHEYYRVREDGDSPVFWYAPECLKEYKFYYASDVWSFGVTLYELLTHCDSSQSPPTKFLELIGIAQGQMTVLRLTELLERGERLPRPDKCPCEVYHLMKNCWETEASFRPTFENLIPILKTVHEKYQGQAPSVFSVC
T1 sequence (O60674 828-1132): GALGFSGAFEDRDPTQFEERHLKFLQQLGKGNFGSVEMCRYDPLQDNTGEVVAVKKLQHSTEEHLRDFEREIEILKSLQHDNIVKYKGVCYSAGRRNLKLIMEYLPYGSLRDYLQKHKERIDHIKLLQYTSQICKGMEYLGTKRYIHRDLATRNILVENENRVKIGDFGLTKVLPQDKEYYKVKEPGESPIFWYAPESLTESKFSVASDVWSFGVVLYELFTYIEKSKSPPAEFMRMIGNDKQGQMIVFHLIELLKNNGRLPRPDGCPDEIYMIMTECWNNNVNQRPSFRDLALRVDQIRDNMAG

On to `CC(=O)N1CCN(Cc2ccc3cc2CCc2cccc(c2)Nc2ncc(Cl)c(n2)N3)CC1` [Example B225, 12-[(4-Acetylpiperazin-1-yl)methyl]-6-chloro-2,4,8,22-tetraazatetracyclo[14.3.1.1(3,7).1(9,13)]docosa-1(20),3(22),4,6,9(21),10,12,16,18-nonaene bis(trifluoroacetate)], for which the IC50 in assay [1] (Table B1) amounted to 0.01 µM; in assay [3] (Table B1), 0.037 µM; in assay [4] (Table B1), 0.046 µM; in assay [5] (Table B1) it was 0.031 µM. The “ALK % of inhibition at a concentration of 500 nM or 1 mM” value (from here on “ALK % of inhibition”) in assay [2] (setting [6]) came out at 27%.

Regarding `O=C(CC1CCN(C(=O)Nc2ccccc2)CC1)Nc1ccc2cc1CCc1cncc(c1)Nc1ncc(Cl)c(n1)N2` [Example A77, 4-(2-{[6-Chloro-2,4,8,18,22-pentaazatetracyclo[14.3.1.1(3,7).1(9,13)]docosa-1(20),3(22),4,6,9(21),10,12,16,18-nonaen-12-yl]amino}-2-oxoethyl)-N-phenylpiperidine-1-carboxamide bis(trifluoroacetate)], the half-inhibitory concentration (IC50) in assay [1] (setting [7]) is 0.0007 µM; in assay [3] (setting [9]), 0.035 µM; in assay [4], 0.004 µM; in assay [5] (setting [10]) it was 0.0006 µM. For the same molecule, the “ALK % of inhibition” value in assay [2] (setting [8]) was 35%.

Take `Cc1ncoc1C(=O)N1CC[C@H](NC(=O)Nc2ccc3cc2CCc2cncc(c2)Nc2ncc(Cl)c(n2)N3)C1` [Example B273, N-[6-Chloro-2,4,8,18,22-pentaazatetracyclo[14.3.1.1(3,7).1(9,13)]docosa-1(20),3(22),4,6,9(21),10,12,16,18-nonaen-12-yl]-N′-{(3S)-1-[(4-methyl-1,3-oxazol-5-yl)carbonyl]pyrrolidin-3-yl}urea bis(trifluoroacetate)]: the IC50 was 1.63 µM in assay [1] (Table B1), more than 10 µM in assay [3] (Table B1), 3.83 µM in assay [4] (Table B1) and 0.117 µM in assay [5] (Table B1). In assay [2] (setting [6]), the “ALK % of inhibition” value came out at 3.2%.

For `N#Cc1ccc2cc1OCCSc1cccc(c1)Nc1nc(ncc1Cl)N2` [Example D81, 6-Chloro-17-oxa-14-thia-2,4,8,24-tetraazatetracyclo[16.3.1.1(3,7).1(9,13)]tetracosa-1(22),3(24),4,6,9(23),10,12,18,20-nonaene-19-carbonitrile trifluoroacetate], the IC50 in assay [1] (Table D1) was 0.016 µM; in assay [2] (Table D1, 90 μM ATP) it was more than 10 µM; in assay [3] (Table D1), 0.13 µM; in assay [4] (Table D1), 0.053 µM; in assay [5] (Table D1), 0.012 µM.

Consider `O=C(Nc1ccc2cc1CCc1cccc(c1)Nc1ncc(Cl)c(n1)N2)C1CCC1` [Example B57, N-[6-Chloro-2,4,8,22-tetraazatetracyclo[14.3.1.1(3,7).1(9,13)]docosa-1(20), 3(22),4,6,9(21),10,12,16,18-nonaen-12-yl]cyclobutanecarboxamide hydrochloride], for which the IC50 came to 0.0053 µM in assay [1] (Table B1); 2.2 µM in assay [2] (setting [11]); 0.018 µM in assay [3] (Table B1); 0.039 µM in assay [4] (Table B1); 0.012 µM in assay [5] (Table B1).

Turning to `O=S(=O)(Nc1cc2cc(c1)OCCSc1cccc(c1)Nc1nc(ncc1Cl)N2)c1ccccc1` [Example D68, N-[6-Chloro-17-oxa-14-thia-2,4,8,24-tetraazatetracyclo[16.3.1.1(3,7).1(9,13)]tetracosa-1(22),3(24),4,6,9(23),10,12,18,20-nonaen-20-yl]benzenesulfonamide trifluoroacetate], the IC50 stood at 0.0058 µM in assay [1] (Table D1); 0.34 µM in assay [2] (Table D1, 90 μM ATP); 0.036 µM in assay [3] (Table D1); 0.032 µM in assay [4] (Table D1); 0.014 µM in assay [5] (Table D1).

Regarding `Clc1cnc2nc1Nc1cccc(c1)SCCNc1cccc(c1)N2` [Example D80, 6-Chloro-14-thia-2,4,8,17,24-pentaazatetracyclo[16.3.1.1(3,7).1(9,13)]tetracosa-1(22),3(24),4,6,9(23),10,12,18,20-nonaene bis(trifluoroacetate)], the IC50 in assay [1] (Table D1) stood at 0.0049 µM; in assay [2] (Table D1, 90 μM ATP), 0.57 µM; in assay [3] (Table D1), 0.023 µM; in assay [4] (Table D1), 0.0088 µM; in assay [5] (Table D1), 0.0074 µM.

For `N#Cc1ccc(C(=O)N2CC[C@H](NC(=O)Nc3ccc4cc3CCc3cccc(c3)Nc3ncc(Cl)c(n3)N4)C2)cc1` [Example B235, N-[6-Chloro-2,4,8,22-tetraazatetracyclo[14.3.1.1(3,7).1(9,13)]docosa-1(20),3(22),4,6,9(21),10,12,16,18-nonaen-12-yl]-N′-[(3S)-1-(4-cyanobenzoyl)pyrrolidin-3-yl]urea trifluoroacetate], the half-maximal inhibitory concentration (IC50) in assay [1] (Table B1) stood at 0.021 µM; in assay [3] (Table B1) it was 0.213 µM; in assay [4] (Table B1), 0.036 µM; in assay [5] (Table B1), 0.006 µM. Also, the “ALK % of inhibition” value in assay [2] (setting [6]) amounted to 7.3%.

Take `CCOC(=O)CNC(=O)N1CCC(C(=O)Nc2ccc3cc2CCc2cccc(c2)Nc2ncc(Cl)c(n2)N3)CC1` [Example A60, Ethyl ({[4-({[6-chloro-2,4,8,22-tetraazatetracyclo[14.3.1.1(3,7).1(9,13)]docosa-1(20),3(22),4,6,9(21),10,12,16,18-nonaen-12-yl]amino}carbonyl)piperidin-1-yl]carbonyl}amino)acetate trifluoroacetate]: the IC50 in assay [1] (setting [7]) turned out to be 0.0065 µM; in assay [3] (setting [9]) it was 0.014 µM; in assay [4] it was 0.022 µM; in assay [5] (setting [10]) it was 0.031 µM. Besides, in assay [2] (setting [8]), the “ALK % of inhibition” value worked out at 28%.

On to `N#Cc1cccc(NC(=O)N2CCC(CC(=O)Nc3ccc4cc3CCc3cncc(c3)Nc3ncc(Cl)c(n3)N4)CC2)c1` [Example A142, 4-(2-{[6-Chloro-2,4,8,18,22-pentaazatetracyclo[14.3.1.1(3,7).1(9,13)]docosa-1(20),3(22),4,6,9(21),10,12,16,18-nonaen-12-yl]amino}-2-oxoethyl)-N-(3-cyanophenyl)piperidine-1-carboxamide bis(trifluoroacetate)], for which the IC50 in assay [1] (setting [7]) is 0.0048 µM; in assay [3] (setting [9]), more than 0.1 µM; in assay [4] it was 0.0065 µM; in assay [5] (setting [10]), 0.0024 µM. For the same molecule, the “ALK % of inhibition” value in assay [2] (setting [8]) is recorded as 41%.

With `Clc1cnc2nc1Nc1cccc(c1)COCc1cccc(c1)N2` [Example D21, 6-Chloro-15-oxa-2,4,8,23-tetraazatetracyclo[15.3.1.1(3,7).1(9,13)]tricosa-1(21),3(23),4,6,9(22),10,12,17,19-nonaene trifluoroacetate], the 50% inhibitory concentration (IC50) amounted to 0.013 µM in assay [1] (Table D1); 0.984 µM in assay [2] (Table D1, 90 μM ATP); 0.045 µM in assay [3] (Table D1); 0.027 µM in assay [4] (Table D1); 0.0081 µM in assay [5] (Table D1).

As for `O=S(=O)(Nc1ccc2cc1CCc1cccc(c1)Nc1ncc(Cl)c(n1)N2)c1cccs1` [Example B146, N-[6-Chloro-2,4,8,22-tetraazatetracyclo[14.3.1.1(3,7).1(9,13)]docosa-1(20), 3(22),4,6,9(21),10,12,16,18-nonaen-12-yl]thiophene-2-sulfonamide trifluoroacetate], the half-maximal inhibitory concentration (IC50) is 0.00011 µM in assay [1] (Table B1); 0.13 µM in assay [2] (setting [11]); 0.0026 µM in assay [3] (Table B1); 0.00061 µM in assay [4] (Table B1); 0.0005 µM in assay [5] (Table B1).

As for `[O-][S+]1CCOc2cccc(c2)Nc2ncc(Cl)c(n2)Nc2cccc1c2` (stereo not drawn) [Example D13, 6-Chloro-17-oxa-14-thia-2,4,8,24-tetraazatetracyclo[16.3.1.1(3,7).1(9,13)]tetracosa-1(22),3(24),4,6,9(23),10,12,18,20-nonaene 14-oxide trifluoroacetate], the concentration for half-maximal inhibition (IC50) was found to be 0.0021 µM in assay [1] (Table D1); 1.74 µM in assay [2] (Table D1, 90 μM ATP); 0.024 µM in assay [3] (Table D1); 0.012 µM in assay [4] (Table D1); 0.0036 µM in assay [5] (Table D1).

As to `O=C1Nc2cccc(c2)Nc2nc(ncc2Cl)Nc2cccc1c2` [Example C2, 6-Chloro-2,4,8,14,22-pentaazatetracyclo[14.3.1.1(3,7).1(9,13)]docosa-1(20),3(22),4,6,9(21),10,12,16,18-nonaen-15-one hydrochloride], the half-maximal inhibitory concentration (IC50) in assay [1], in assay [2], in assay [3], in assay [4] and in assay [5] was more than 1 µM throughout.

`Cc1cc(C(=O)N2CC[C@@H](C(=O)Nc3ccc4cc3CCc3cccc(c3)Nc3ncc(Cl)c(n3)N4)C2)no1` [Example A122, (3R)—N-[6-Chloro-2,4,8,22-tetraazatetracyclo[14.3.1.1(3,7).1(9,13)]docosa-1(20),3(22),4,6,9(21),10,12,16,18-nonaen-12-yl]-1-[(5-methylisoxazol-3-yl)carbonyl]pyrrolidine-4-carboxamide trifluoroacetate]: the IC50 was found to be 0.0039 µM in assay [1] (setting [7]), 0.0073 µM in assay [3] (setting [9]), 0.017 µM in assay [4] and 0.0072 µM in assay [5] (setting [10]). Moreover, the “ALK % of inhibition” value in assay [2] (setting [8]) came to 52%.
